Measurements published in ChEMBL document CHEMBL5316318, “Structural Modification and Pharmacological Evaluation of Substituted Quinoline-5,8-diones as Potent NSD2 Inhibitors” (J Med Chem, 2023).

Experiments:
[1] = biological target: T1, Histone-lysine N-methyltransferase NSD2 (Homo sapiens, UniProt O96028); experiment: Inhibition of recombinant human NSD2 (941 to 1240 residues) using SAM as substrate incubated for 3 hrs by AlphaLISA assay
T1 sequence (O96028 whole entry): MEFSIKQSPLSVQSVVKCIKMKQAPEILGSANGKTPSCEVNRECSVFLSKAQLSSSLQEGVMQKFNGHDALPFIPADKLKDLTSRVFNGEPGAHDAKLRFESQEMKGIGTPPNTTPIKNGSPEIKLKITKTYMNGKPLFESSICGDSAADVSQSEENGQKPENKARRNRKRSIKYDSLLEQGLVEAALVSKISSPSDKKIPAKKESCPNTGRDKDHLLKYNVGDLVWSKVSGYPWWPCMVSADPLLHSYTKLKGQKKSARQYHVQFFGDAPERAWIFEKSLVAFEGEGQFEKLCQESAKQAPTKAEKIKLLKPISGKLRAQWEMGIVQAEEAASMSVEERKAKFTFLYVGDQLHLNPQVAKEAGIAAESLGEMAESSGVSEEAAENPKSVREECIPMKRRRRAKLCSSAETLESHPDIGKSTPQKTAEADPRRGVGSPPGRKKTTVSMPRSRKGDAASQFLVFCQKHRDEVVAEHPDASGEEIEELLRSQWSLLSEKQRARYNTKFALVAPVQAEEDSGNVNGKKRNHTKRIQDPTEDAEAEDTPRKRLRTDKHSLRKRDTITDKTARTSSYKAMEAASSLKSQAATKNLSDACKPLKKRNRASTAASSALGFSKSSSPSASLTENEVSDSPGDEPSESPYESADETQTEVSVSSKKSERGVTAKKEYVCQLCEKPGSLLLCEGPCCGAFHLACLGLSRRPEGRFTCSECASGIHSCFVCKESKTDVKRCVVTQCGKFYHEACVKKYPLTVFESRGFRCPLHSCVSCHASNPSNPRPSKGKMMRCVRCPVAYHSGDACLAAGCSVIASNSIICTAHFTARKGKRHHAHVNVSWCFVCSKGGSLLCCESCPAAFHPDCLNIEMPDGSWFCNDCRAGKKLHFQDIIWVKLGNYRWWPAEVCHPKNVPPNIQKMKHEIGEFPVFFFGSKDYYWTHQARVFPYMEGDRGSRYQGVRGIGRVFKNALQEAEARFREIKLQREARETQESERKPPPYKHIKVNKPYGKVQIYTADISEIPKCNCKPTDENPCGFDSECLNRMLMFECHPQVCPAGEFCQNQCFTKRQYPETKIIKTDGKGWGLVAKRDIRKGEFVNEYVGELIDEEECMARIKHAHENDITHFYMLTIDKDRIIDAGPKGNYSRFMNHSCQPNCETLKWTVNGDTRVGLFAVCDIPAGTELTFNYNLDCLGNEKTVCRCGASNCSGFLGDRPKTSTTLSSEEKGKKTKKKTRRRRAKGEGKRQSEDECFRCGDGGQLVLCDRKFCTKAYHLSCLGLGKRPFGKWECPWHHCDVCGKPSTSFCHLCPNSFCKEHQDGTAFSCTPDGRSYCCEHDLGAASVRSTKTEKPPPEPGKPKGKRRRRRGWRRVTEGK

[2] = biological target: T1, Histone-lysine N-methyltransferase NSD2; experiment: Competitive inhibition of NSD2 (unknown origin) using SAM as substrate
[3] = Apparent permeability coefficient, Papp in MDCK cells; type: ADME, cell-based, Canis lupus familiaris; conditions: dog
KMS-11 = experiment: Antiproliferative activity against human KMS-11 cells assessed as inhibition of cell growth incubated for 6 days by CCK-8 assay; type: functional, cell-based; conditions: KMS-11, 144 h
[4] = biological target: Histone-lysine N-methyltransferase EZH2 (Homo sapiens, UniProt Q15910); experiment: Inhibition of EZH2 (unknown origin) using SAM as substrate preincubated for 10 mins followed by substrate addition and measured after 4 hrs by HTRF analysis
Chain of Histone-lysine N-methyltransferase EZH2 (Q15910 whole entry): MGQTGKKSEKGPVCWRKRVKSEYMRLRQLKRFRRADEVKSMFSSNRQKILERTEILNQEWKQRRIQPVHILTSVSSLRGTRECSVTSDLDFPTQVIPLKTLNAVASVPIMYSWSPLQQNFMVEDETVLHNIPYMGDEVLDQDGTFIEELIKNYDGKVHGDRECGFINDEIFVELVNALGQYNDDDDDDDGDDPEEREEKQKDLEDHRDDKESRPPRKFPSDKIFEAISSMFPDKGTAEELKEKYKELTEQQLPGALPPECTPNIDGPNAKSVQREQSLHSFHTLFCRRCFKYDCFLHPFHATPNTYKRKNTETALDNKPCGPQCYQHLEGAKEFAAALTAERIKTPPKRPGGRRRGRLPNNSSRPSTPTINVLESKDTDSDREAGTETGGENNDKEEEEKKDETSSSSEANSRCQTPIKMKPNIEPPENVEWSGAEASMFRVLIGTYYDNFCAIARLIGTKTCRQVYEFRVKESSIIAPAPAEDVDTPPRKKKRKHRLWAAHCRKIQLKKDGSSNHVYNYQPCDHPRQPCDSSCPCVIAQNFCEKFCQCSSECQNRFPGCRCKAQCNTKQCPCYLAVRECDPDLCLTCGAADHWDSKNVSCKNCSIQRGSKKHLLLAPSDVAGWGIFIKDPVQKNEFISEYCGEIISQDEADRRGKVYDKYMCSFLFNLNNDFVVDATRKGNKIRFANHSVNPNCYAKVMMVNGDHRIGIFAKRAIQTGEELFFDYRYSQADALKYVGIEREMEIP

[5] = biological target: Histone-lysine N-methyltransferase, H3 lysine-36 specific (Homo sapiens, UniProt Q96L73); experiment: Inhibition of NSD1 (unknown origin)
Chain of Histone-lysine N-methyltransferase, H3 lysine-36 specific (Q96L73 whole entry): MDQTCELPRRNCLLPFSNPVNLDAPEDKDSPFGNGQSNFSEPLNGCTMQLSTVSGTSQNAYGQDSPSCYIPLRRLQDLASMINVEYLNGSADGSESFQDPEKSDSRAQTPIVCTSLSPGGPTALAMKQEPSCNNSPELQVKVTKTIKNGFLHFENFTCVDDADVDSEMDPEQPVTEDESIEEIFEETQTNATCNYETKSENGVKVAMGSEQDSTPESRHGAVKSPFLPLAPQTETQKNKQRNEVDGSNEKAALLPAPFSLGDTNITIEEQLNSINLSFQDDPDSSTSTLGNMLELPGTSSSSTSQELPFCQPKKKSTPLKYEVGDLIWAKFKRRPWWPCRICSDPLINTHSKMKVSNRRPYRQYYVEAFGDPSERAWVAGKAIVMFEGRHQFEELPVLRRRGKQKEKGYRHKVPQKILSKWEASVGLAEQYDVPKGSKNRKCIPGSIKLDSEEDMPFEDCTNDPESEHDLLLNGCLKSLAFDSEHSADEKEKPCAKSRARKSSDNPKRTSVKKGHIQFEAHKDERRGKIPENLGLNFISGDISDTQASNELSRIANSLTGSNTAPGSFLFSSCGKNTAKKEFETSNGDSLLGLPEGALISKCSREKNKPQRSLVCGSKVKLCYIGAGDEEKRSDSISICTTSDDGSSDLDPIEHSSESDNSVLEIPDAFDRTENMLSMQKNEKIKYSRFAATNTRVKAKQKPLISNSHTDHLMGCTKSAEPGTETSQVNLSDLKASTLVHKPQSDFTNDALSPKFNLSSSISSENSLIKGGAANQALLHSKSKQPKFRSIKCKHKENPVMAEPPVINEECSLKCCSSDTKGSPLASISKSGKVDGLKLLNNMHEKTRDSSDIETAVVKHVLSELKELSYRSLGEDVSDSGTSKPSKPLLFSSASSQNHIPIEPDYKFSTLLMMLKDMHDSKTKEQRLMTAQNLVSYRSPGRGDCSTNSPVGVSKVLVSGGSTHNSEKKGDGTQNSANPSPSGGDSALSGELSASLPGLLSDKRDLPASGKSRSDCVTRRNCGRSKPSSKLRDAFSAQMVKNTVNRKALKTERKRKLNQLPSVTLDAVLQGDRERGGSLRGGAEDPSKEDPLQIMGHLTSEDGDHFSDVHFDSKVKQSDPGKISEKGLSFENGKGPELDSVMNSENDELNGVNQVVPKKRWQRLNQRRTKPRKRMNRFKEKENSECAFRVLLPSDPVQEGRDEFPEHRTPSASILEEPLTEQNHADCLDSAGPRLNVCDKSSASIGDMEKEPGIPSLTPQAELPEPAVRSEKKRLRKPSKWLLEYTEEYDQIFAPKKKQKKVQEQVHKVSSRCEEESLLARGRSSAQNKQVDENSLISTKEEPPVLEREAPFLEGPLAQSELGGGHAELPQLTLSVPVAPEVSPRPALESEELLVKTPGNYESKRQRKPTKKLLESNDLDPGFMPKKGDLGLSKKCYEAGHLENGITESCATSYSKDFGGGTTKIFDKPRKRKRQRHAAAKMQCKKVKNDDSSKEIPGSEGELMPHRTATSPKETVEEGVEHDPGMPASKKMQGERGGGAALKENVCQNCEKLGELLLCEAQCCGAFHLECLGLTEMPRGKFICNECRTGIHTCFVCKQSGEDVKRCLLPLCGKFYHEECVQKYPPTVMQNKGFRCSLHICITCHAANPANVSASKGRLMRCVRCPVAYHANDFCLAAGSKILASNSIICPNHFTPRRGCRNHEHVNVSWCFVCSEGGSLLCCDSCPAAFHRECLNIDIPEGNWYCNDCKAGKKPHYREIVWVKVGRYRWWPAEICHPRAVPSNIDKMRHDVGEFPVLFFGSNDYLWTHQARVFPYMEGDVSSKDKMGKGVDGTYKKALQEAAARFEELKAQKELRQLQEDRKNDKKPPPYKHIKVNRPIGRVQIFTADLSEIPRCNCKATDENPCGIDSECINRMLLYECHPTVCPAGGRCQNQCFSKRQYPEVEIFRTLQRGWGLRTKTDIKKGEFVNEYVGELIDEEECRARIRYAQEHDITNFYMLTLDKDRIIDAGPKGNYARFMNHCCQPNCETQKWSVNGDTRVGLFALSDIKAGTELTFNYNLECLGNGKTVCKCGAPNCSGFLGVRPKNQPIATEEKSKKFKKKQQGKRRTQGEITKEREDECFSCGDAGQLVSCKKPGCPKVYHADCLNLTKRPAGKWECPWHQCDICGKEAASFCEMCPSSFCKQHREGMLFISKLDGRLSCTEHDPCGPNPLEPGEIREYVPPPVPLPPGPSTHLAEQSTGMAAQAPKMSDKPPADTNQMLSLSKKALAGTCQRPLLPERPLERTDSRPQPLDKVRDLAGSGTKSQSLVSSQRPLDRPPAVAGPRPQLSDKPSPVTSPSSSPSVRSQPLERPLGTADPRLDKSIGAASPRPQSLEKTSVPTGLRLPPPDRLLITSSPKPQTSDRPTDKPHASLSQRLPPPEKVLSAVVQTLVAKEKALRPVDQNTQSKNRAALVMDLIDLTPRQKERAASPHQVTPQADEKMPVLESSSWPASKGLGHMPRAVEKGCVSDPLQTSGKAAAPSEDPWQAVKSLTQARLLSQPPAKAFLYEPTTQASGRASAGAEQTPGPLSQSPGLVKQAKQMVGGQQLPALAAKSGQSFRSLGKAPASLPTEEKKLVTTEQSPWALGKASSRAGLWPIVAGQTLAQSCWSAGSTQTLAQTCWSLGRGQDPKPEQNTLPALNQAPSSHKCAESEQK

[6] = Tmax in ICR mouse at 3 mg/kg, po measured for 24 hrs by LC-MS/MS analysis; type: ADME, organism-based; conditions: in vivo
[7] = Half life in ICR mouse at 3 mg/kg, po measured for 24 hrs by LC-MS/MS analysis; type: ADME, organism-based; conditions: in vivo
[8] = AUClast in ICR mouse at 3 mg/kg, po measured for 24 hrs by LC-MS/MS analysis; type: ADME, organism-based; parameters: dose 3 mg/kg, time 24 hrs, route po; conditions: in vivo
[9] = biological target: T1, Histone-lysine N-methyltransferase NSD2; experiment: Inhibition of N-terminal polyhistidine tagged human recombinant NSD2 SET domain (934 to 1241 residues) expressed in Escherichia coli using SAM as substrate preincubated for 30 mins followed by substrate addition and measured after 15 mins by MTase-Glo assay
[10] = biological target: Histone-lysine N-methyltransferase NSD3 (Homo sapiens, UniProt Q9BZ95); experiment: Inhibition of NSD3 (unknown origin)
Chain of Histone-lysine N-methyltransferase NSD3 (Q9BZ95 whole entry): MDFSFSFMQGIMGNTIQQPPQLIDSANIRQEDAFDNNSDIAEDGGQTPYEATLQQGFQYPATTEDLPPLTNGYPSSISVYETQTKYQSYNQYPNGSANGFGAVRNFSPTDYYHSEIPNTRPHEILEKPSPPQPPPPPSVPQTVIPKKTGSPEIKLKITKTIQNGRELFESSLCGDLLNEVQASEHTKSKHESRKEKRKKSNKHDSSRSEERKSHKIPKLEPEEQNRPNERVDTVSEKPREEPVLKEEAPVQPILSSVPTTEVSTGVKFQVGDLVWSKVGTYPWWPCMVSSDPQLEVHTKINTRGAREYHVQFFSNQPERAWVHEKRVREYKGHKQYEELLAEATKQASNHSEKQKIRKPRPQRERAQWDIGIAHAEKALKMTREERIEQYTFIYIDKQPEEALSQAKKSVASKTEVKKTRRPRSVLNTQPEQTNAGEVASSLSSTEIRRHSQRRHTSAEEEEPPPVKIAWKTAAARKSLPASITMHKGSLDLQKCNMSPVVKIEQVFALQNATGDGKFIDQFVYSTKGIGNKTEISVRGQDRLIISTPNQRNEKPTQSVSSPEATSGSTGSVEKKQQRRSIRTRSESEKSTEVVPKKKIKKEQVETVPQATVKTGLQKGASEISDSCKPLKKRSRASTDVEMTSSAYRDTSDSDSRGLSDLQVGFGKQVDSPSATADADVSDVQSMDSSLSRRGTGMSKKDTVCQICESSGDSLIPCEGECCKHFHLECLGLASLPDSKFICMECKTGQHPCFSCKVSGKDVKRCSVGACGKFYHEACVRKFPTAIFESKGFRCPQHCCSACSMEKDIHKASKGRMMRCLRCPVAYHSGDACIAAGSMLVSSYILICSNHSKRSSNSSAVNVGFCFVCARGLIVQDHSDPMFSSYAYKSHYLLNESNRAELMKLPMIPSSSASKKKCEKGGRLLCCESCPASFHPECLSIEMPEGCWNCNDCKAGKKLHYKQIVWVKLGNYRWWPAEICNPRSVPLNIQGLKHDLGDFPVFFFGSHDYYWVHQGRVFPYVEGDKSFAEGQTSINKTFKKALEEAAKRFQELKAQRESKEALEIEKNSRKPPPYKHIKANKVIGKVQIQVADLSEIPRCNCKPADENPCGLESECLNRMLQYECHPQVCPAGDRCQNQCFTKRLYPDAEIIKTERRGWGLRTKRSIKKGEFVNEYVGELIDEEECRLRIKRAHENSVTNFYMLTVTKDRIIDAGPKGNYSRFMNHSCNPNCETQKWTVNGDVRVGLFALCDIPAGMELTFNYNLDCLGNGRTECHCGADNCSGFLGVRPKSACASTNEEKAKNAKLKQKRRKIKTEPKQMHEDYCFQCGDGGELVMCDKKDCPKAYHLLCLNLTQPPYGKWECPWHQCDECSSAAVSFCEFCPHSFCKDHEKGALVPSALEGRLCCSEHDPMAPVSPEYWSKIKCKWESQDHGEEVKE

[11] = Cmax in ICR mouse at 3 mg/kg, po measured for 24 hrs by LC-MS/MS analysis; type: ADME, organism-based; parameters: dose 3 mg/kg, time 24 hrs, route po; conditions: in vivo
[12] = biological target: T1, Histone-lysine N-methyltransferase NSD2; experiment: Inhibition of human MMSET (973 to 1203 residues) expressed in Escherichia coli BL21 (DE3) using S-adenosyl-methionine as substrate incubated for 60 mins by AlphaScreen assay

Structure (SMILES)	IC50 [1] [nM]	Papp [3] [×10⁻⁶ cm/s]	IC50 (KMS-11) [nM]	further results
CC(F)(F)C(=O)N1CCC2(CC1)CN(C1=C(Cl)C(=O)c3ncccc3C1=O)C2	3050	–	–	–
CC#CC(=O)N1CCC2(CC1)CN(C1=C(Cl)C(=O)c3ncccc3C1=O)C2	2480	–	–	–
NNc1nc2ccccc2nc1S	–	–	–	IC50 [2]: < 3000 nM
CC(F)(F)C(=O)NC12CC(NC3=C(Cl)C(=O)c4cccnc4C3=O)(C1)C2	300	44.4	2400	–
CC#CC(=O)NC12CC(NC3=C(Cl)C(=O)c4cccnc4C3=O)(C1)C2	250	42	2210	IC50 [4]: 1040 nM
O=C1C(Cl)=C(NCCN2CCOCC2)C(=O)c2ncccc21	230	31.2	1430	IC50 [5]: 150 nM; Tmax [6]: 19.8 min; half-life [7]: 34.2 min; AUC(0-t) at 24 h [8]: 14.5 ng·h/mL; IC50 [9]: 170 nM; IC50 [10]: 340 nM; Cmax [11]: 21.1 ng/mL
CCCN[C@@H](CC[C@H](N)C(=O)O)C[C@H]1O[C@@H](n2cnc3c(N)ncnc32)[C@H](O)[C@@H]1O	–	–	–	IC50 [12]: 3300 nM
C[C@@](O)(C(=O)NC12CC(NC3=C(Cl)C(=O)c4cccnc4C3=O)(C1)C2)C(F)(F)F	420	–	–	–
CC#CC(=O)NC1CN(C2=C(Cl)C(=O)c3cccnc3C2=O)C1	310	–	–	–
CC(F)(F)C(=O)NCCC1CCN(C2=C(Cl)C(=O)c3ncccc3C2=O)CC1	1350	–	–	–
O=C1C(Cl)=C(NC2CCc3ccccc32)C(=O)c2ncccc21 (centres undefined)	210	28.8	2520	–
O=C1C(Cl)=C(NCCC2(O)CCN(C(=O)C3CC3(F)F)CC2)C(=O)c2ncccc21 (centres undefined)	200	21.5	3940	–
CC#CC(=O)NC1CN(C2=C(Cl)C(=O)c3ncccc3C2=O)C1	590	–	–	–

Continued, in another order:

IC50 [1] [nM]	Papp [3] [×10⁻⁶ cm/s]	Structure (SMILES)	IC50 (KMS-11) [nM]	further results
490	–	O=C1C(NCCN2CCOCC2)=C(Cl)C(=O)c2ncccc21	–	–
380	–	CC(F)(F)C(=O)NCCC1CN(C2=C(Cl)C(=O)c3cccnc3C2=O)C1	–	–
380	–	CC(F)(F)C(=O)NCCC1CN(C2=C(Cl)C(=O)c3ncccc3C2=O)C1	–	–
1310	–	CC(C)(O)[C@H](F)CNC1=C(Cl)C(=O)c2ncccc2C1=O	–	–
1280	–	O=C1C(NCCC2(O)CCN(C(=O)C3CC3(F)F)CC2)=C(Cl)C(=O)c2ncccc21 (centres undefined)	–	–
930	–	CC(C)(O)[C@H](F)CNC1=C(Cl)C(=O)c2ccc(N3CCC(F)(F)C3)nc2C1=O	–	–
300	30.8	CC(C)(O)[C@H](F)CNC1=C(Cl)C(=O)c2cccnc2C1=O	1680	–
> 10000	–	CC(C)(O)[C@H](F)CNC1=C(Cl)C(=O)c2ccc(N3CC(O)C3)nc2C1=O	–	–
240	17.8	C[C@@](O)(C(=O)N1CCC(O)(CCNC2=C(Cl)C(=O)c3cccnc3C2=O)CC1)C(F)(F)F	8100	–
